{
  "source": "paper PMC8550792",
  "about": "“Evolution of kinase polypharmacology across HSP90 drug discovery” (Cell Chemical Biology, 2021)",
  "assay_in_all_cases": "biochemical",
  "assay_type_in_all_cases": "biochemical",
  "key": {"382 unique human kinases [1]": {"molecular_target": "T1, 382 unique human kinases (Homo sapiens, UniProt O15530)", "T1 construct": "purchased Reaction Biology (HotSpot contract assay)", "T1 sequence (O15530 1-556)": "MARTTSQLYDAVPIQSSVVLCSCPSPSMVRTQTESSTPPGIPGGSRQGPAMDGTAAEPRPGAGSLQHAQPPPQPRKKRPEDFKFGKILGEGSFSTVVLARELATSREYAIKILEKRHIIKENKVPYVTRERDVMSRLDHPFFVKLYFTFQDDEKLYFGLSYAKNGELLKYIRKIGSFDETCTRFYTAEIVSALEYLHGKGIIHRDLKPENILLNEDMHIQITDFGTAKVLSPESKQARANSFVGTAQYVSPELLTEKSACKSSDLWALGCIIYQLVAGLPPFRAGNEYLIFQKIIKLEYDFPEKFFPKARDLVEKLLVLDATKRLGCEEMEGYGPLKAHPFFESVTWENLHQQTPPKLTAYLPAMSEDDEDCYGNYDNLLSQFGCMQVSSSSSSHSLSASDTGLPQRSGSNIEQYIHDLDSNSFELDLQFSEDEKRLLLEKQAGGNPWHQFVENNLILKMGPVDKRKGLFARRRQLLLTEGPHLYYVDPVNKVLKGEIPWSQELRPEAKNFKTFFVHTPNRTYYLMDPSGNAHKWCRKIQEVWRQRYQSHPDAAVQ", "conditions": "PDK1/PDPK1, 10 uM; for remaining activity at 10 µM: read-out: % Enzyme Activity (relative to DMSO controls)"}, "382 unique human kinases [2]": {"molecular_target": "T2, 382 unique human kinases (Homo sapiens, UniProt Q5S007, G2019S)", "T2 construct": "purchased Reaction Biology (HotSpot contract assay)", "T2 sequence (Q5S007 whole entry G2019S)": "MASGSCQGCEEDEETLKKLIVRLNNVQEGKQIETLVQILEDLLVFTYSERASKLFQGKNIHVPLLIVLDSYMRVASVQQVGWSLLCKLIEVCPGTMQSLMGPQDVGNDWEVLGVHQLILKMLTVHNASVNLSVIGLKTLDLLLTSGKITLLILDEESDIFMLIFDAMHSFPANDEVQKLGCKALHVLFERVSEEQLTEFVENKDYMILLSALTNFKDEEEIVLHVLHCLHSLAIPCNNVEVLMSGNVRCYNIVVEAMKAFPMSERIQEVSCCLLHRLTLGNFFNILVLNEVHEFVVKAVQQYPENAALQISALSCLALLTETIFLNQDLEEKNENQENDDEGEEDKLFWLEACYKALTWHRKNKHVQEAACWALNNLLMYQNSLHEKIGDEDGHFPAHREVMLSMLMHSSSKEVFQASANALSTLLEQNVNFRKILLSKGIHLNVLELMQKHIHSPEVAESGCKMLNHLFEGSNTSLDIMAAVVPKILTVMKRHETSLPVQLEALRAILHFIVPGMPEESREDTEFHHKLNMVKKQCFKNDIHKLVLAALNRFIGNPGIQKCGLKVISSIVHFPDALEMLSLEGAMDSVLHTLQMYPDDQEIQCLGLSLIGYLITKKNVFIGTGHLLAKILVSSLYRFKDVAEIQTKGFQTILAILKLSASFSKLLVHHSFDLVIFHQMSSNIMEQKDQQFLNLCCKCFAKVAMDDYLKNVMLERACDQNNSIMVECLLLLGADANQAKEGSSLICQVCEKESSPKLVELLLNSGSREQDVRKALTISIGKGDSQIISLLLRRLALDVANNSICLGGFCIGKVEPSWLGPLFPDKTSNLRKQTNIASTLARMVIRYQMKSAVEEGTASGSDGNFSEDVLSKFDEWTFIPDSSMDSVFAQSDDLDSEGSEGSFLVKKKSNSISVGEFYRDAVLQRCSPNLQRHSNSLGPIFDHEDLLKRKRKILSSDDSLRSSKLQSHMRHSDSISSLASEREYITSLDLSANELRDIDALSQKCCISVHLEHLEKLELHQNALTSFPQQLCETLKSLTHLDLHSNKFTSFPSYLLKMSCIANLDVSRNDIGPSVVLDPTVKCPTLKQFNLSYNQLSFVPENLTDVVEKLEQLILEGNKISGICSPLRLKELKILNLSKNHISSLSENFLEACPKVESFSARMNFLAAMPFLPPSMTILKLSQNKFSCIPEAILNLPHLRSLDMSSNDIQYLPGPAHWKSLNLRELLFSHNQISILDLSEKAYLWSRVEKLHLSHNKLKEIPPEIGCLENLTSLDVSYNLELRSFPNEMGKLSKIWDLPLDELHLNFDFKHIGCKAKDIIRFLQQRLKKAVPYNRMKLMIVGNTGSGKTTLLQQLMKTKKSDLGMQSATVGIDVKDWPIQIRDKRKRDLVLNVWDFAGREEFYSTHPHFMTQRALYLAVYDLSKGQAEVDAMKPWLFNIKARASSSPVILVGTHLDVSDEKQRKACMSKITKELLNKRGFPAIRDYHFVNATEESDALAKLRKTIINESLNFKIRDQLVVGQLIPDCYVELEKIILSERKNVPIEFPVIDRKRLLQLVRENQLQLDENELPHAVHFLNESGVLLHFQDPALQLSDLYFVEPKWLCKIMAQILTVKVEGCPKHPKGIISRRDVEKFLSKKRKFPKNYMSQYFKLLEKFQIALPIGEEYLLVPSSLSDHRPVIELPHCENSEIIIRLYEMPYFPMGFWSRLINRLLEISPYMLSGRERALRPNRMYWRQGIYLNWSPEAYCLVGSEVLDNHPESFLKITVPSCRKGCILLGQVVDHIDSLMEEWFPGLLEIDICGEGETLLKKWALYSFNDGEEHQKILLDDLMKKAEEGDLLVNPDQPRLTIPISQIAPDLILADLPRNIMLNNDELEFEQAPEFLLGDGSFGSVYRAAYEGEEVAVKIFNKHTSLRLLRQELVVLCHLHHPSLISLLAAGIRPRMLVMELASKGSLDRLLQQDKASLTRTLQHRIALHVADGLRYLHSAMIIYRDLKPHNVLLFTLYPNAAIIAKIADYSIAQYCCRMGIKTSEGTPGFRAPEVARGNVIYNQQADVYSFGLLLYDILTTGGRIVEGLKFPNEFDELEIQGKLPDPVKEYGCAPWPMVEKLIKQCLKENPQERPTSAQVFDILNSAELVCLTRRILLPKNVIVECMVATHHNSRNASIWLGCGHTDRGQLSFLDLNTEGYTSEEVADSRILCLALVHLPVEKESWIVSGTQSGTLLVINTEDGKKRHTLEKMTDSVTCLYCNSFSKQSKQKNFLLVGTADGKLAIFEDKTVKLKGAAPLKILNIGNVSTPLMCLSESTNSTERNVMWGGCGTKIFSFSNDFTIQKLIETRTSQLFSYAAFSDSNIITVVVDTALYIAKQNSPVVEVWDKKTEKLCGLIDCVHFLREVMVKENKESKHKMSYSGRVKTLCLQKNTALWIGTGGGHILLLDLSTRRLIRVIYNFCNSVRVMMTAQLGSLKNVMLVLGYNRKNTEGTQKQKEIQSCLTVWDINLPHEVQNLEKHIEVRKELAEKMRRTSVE", "conditions": "LRRK2 (G2019S), [ATP] 50 µM, compound 10 uM; for remaining activity at 10 µM: read-out: % Enzyme Activity (relative to DMSO controls)"}, "382 unique human kinases [3]": {"molecular_target": "T3, 382 unique human kinases (Homo sapiens, UniProt P06241)", "T3 construct": "purchased Reaction Biology (HotSpot contract assay)", "conditions": "FYN, [ATP] 30 µM"}, "382 unique human kinases [4]": {"molecular_target": "T4, 382 unique human kinases (Homo sapiens, UniProt P10721, A829P)", "T4 construct": "purchased Reaction Biology (HotSpot contract assay)", "conditions": "c-Kit (A829P), [ATP] 50 µM, compound 10 uM; for remaining activity at 10 µM: read-out: % Enzyme Activity (relative to DMSO controls)"}, "382 unique human kinases [5]": {"molecular_target": "T5, 382 unique human kinases (Homo sapiens, UniProt P17612)", "T5 construct": "purchased Reaction Biology (HotSpot contract assay)", "conditions": "PKA, 10 uM; for remaining activity at 10 µM: read-out: % Enzyme Activity (relative to DMSO controls)"}, "382 unique human kinases [6]": {"molecular_target": "T6, 382 unique human kinases (Homo sapiens, UniProt Q32MK0)", "T6 construct": "purchased Reaction Biology (HotSpot contract assay)", "T6 sequence (Q32MK0 1-819)": "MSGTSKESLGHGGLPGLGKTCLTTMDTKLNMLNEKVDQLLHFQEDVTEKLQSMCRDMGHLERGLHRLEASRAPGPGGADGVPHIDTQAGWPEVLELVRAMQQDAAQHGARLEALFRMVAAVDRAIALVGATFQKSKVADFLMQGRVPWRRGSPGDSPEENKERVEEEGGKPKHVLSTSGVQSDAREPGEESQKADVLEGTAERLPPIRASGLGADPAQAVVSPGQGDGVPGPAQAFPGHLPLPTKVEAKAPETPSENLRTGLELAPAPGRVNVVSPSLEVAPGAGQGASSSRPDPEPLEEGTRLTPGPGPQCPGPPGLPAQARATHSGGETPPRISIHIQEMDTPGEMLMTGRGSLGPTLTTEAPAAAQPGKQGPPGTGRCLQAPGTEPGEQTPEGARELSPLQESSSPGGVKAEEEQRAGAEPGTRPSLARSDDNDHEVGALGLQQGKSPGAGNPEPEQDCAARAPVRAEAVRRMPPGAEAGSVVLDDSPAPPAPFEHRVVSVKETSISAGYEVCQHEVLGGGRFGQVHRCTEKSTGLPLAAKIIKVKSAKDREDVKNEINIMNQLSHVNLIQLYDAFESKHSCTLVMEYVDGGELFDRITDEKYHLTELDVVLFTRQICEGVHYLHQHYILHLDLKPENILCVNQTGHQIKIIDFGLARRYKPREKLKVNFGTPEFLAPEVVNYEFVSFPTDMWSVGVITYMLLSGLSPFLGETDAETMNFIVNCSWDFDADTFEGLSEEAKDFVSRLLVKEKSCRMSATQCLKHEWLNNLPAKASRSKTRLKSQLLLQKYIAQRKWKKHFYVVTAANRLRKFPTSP", "conditions": "MYLK3, 10 uM; for remaining activity at 10 µM: read-out: % Enzyme Activity (relative to DMSO controls)"}, "382 unique human kinases [7]": {"molecular_target": "T7, 382 unique human kinases (Homo sapiens, UniProt P15056)", "T7 construct": "purchased Reaction Biology (HotSpot contract assay)", "conditions": "BRAF, 10 uM; for remaining activity at 10 µM: read-out: % Enzyme Activity (relative to DMSO controls)"}, "382 unique human kinases [8]": {"molecular_target": "T8, 382 unique human kinases (Homo sapiens, UniProt Q9UM73, L1196M)", "T8 construct": "purchased Reaction Biology (HotSpot contract assay)", "T8 sequence (Q9UM73 19-1620 L1196M)": "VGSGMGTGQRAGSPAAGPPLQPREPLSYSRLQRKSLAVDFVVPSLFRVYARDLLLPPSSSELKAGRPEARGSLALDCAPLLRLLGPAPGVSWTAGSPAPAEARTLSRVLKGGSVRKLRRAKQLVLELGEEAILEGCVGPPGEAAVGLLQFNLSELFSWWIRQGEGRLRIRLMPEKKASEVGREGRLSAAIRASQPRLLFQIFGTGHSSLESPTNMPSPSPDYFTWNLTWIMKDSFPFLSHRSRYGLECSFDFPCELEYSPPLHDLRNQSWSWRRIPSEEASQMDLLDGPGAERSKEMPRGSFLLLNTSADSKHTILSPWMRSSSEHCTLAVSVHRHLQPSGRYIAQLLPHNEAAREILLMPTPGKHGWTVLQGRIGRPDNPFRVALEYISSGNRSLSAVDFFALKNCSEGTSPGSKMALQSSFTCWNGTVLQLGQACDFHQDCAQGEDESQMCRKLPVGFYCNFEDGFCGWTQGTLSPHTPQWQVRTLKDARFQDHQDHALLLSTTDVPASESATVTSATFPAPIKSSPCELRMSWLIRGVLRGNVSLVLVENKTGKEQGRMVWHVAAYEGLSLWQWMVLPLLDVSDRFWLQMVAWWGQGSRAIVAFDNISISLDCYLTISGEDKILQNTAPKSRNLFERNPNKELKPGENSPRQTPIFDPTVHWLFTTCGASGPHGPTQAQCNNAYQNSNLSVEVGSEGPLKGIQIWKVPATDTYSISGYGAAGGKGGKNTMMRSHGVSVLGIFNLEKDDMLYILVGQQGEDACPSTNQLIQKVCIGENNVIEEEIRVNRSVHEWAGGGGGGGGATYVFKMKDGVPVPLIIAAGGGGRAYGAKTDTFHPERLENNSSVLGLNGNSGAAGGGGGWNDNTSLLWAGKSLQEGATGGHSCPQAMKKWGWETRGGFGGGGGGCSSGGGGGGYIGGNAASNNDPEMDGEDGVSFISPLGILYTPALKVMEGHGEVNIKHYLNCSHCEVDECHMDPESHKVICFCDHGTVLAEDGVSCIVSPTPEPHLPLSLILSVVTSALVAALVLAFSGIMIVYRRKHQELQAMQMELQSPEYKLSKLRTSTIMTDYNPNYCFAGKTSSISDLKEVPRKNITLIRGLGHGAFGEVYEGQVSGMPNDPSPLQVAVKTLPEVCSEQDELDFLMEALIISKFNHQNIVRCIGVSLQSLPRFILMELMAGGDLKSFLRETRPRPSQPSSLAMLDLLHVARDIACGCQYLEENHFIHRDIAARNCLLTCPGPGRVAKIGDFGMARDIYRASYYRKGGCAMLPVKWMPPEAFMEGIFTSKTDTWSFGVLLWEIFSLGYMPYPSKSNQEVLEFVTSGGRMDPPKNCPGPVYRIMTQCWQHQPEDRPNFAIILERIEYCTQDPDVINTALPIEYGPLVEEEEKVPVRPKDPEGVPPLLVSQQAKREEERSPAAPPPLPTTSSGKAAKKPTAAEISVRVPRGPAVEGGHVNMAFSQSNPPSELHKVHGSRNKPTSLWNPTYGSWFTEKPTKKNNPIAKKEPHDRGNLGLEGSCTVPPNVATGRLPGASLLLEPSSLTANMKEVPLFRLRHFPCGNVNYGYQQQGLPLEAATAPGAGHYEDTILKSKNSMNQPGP", "conditions": "ALK (L1196M), 10 uM; for remaining activity at 10 µM: read-out: % Enzyme Activity (relative to DMSO controls)"}, "382 unique human kinases [9]": {"molecular_target": "T9, 382 unique human kinases (Homo sapiens, UniProt P53667)", "T9 construct": "purchased Reaction Biology (HotSpot contract assay)", "conditions": "LIMK1, 10 uM; for remaining activity at 10 µM: read-out: % Enzyme Activity (relative to DMSO controls)"}, "382 unique human kinases [10]": {"molecular_target": "T10, 382 unique human kinases (Homo sapiens, UniProt P32298)", "T10 construct": "purchased Reaction Biology (HotSpot contract assay)", "conditions": "kinase GRK4, compound 10 uM; for remaining activity at 10 µM: read-out: % Enzyme Activity (relative to DMSO controls)"}, "382 unique human kinases [11]": {"molecular_target": "T11, 382 unique human kinases (Homo sapiens, UniProt P00519, T315I)", "T11 construct": "purchased Reaction Biology (HotSpot contract assay)", "conditions": "ABL1 (T315I), 10 uM; for remaining activity at 10 µM: read-out: % Enzyme Activity (relative to DMSO controls)"}, "382 unique human kinases [12]": {"molecular_target": "T12, 382 unique human kinases (Homo sapiens, UniProt P22607, K650Q)", "T12 construct": "purchased Reaction Biology (HotSpot contract assay)", "T12 sequence (P22607 23-806 K650Q)": "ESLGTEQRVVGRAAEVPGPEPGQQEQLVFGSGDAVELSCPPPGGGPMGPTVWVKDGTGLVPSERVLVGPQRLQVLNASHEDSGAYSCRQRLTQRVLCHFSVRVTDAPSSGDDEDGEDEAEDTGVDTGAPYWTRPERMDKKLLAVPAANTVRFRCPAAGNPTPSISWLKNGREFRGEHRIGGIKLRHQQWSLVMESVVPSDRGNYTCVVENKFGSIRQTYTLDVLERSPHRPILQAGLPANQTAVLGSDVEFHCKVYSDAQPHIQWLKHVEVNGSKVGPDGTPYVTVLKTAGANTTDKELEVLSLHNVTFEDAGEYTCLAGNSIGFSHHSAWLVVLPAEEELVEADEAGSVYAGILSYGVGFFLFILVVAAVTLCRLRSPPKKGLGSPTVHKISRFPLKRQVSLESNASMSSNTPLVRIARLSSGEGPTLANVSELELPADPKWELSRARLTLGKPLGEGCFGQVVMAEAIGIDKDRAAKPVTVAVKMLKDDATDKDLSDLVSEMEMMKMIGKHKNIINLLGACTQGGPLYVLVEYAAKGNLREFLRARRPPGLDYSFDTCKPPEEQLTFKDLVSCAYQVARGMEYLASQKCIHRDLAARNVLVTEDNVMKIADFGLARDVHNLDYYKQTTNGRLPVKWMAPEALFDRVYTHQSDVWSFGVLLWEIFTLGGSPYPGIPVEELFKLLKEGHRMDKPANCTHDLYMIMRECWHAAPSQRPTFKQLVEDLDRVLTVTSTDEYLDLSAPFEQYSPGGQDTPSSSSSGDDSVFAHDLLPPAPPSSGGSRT", "conditions": "kinase FGFR3 (K650Q), compound 10 uM; for remaining activity at 10 µM: read-out: % Enzyme Activity (relative to DMSO controls)"}},
  "data": [
    {"smiles": "CCNC(=O)c1noc(-c2cc(C(C)C)c(O)cc2O)c1-c1ccc(CN2CCOCC2)cc1", "note": "[Luminespib]", "values": [
      {"measurement": "% Enzyme Activity (relative to DMSO controls)", "setting": "382 unique human kinases [1]", "value": 101.64, "unit": "%"},
      {"measurement": "remaining activity at 10 µM", "setting": "382 unique human kinases [1]", "value": 102, "unit": "%"},
      {"measurement": "% Enzyme Activity (relative to DMSO controls)", "setting": "382 unique human kinases [2]", "value": 91.80, "unit": "%"},
      {"measurement": "remaining activity at 10 µM", "setting": "382 unique human kinases [2]", "value": 93.5, "unit": "%"},
      {"measurement": "% Enzyme Activity (relative to DMSO controls)", "setting": "382 unique human kinases [3]; compound 10 uM", "value": 65.29, "unit": "%"},
      {"measurement": "remaining activity at 10 µM", "setting": "382 unique human kinases [3]; compound 10 uM, read-out: % Enzyme Activity (relative to DMSO controls)", "value": 65.6, "unit": "%"},
      {"measurement": "% Enzyme Activity (relative to DMSO controls)", "setting": "382 unique human kinases [4]", "value": 84.14, "unit": "%"},
      {"measurement": "remaining activity at 10 µM", "setting": "382 unique human kinases [4]", "value": 85.3, "unit": "%"},
      {"measurement": "% Enzyme Activity (relative to DMSO controls)", "setting": "382 unique human kinases [5]", "value": 108.65, "unit": "%"},
      {"measurement": "remaining activity at 10 µM", "setting": "382 unique human kinases [5]", "value": 111, "unit": "%"},
      {"measurement": "% Enzyme Activity (relative to DMSO controls)", "setting": "382 unique human kinases [6]", "value": 99.89, "unit": "%"},
      {"measurement": "remaining activity at 10 µM", "setting": "382 unique human kinases [6]", "value": 100, "unit": "%"},
      {"measurement": "% Enzyme Activity (relative to DMSO controls)", "setting": "382 unique human kinases [7]", "value": 103.97, "unit": "%"},
      {"measurement": "remaining activity at 10 µM", "setting": "382 unique human kinases [7]", "value": 105, "unit": "%"}
    ]},
    {"smiles": "CC(C)c1cc(-c2n[nH]c(=O)n2-c2ccc3c(ccn3C)c2)c(O)cc1O", "note": "[Ganetespib (STA9090)]", "values": [
      {"measurement": "remaining activity at 10 µM", "setting": "382 unique human kinases [8]", "value": 70.2, "unit": "%"},
      {"measurement": "remaining activity at 10 µM", "setting": "382 unique human kinases [9]", "value": 67.6, "unit": "%"},
      {"measurement": "remaining activity at 10 µM", "setting": "382 unique human kinases [10]", "value": 90, "unit": "%"},
      {"measurement": "remaining activity at 10 µM", "setting": "382 unique human kinases [11]", "value": 72.8, "unit": "%"},
      {"measurement": "remaining activity at 10 µM", "setting": "382 unique human kinases [12]", "value": 84.5, "unit": "%"}
    ]},
    {"smiles": "CCNC(=O)c1noc(-c2cc(C(C)C)c(O)cc2O)c1-c1ccc(CN2CCOCC2)cc1", "note": "[Luminespib (AUY-922)]", "values": [
      {"measurement": "% Enzyme Activity (relative to DMSO controls)", "setting": "382 unique human kinases [8]", "value": 98.66, "unit": "%"},
      {"measurement": "remaining activity at 10 µM", "setting": "382 unique human kinases [8]", "value": 100, "unit": "%"},
      {"measurement": "% Enzyme Activity (relative to DMSO controls)", "setting": "382 unique human kinases [9]", "value": 101.40, "unit": "%"},
      {"measurement": "remaining activity at 10 µM", "setting": "382 unique human kinases [9]", "value": 102, "unit": "%"},
      {"measurement": "% Enzyme Activity (relative to DMSO controls)", "setting": "382 unique human kinases [10]", "value": 97.37, "unit": "%"},
      {"measurement": "remaining activity at 10 µM", "setting": "382 unique human kinases [10]", "value": 97.7, "unit": "%"},
      {"measurement": "% Enzyme Activity (relative to DMSO controls)", "setting": "382 unique human kinases [11]", "value": 112.00, "unit": "%"},
      {"measurement": "remaining activity at 10 µM", "setting": "382 unique human kinases [11]", "value": 114, "unit": "%"},
      {"measurement": "% Enzyme Activity (relative to DMSO controls)", "setting": "382 unique human kinases [12]", "value": 105.48, "unit": "%"},
      {"measurement": "remaining activity at 10 µM", "setting": "382 unique human kinases [12]", "value": 107, "unit": "%"}
    ]},
    {"smiles": "CC(C)c1cc(-c2n[nH]c(=O)n2-c2ccc3c(ccn3C)c2)c(O)cc1O", "note": "[Ganetespib]", "values": [
      {"measurement": "remaining activity at 10 µM", "setting": "382 unique human kinases [1]", "value": 99.4, "unit": "%"},
      {"measurement": "remaining activity at 10 µM", "setting": "382 unique human kinases [2]", "value": 28.6, "unit": "%"},
      {"measurement": "remaining activity at 1 µM", "setting": "382 unique human kinases [3]; compound 1 uM, read-out: % Enzyme Activity (relative to DMSO controls)", "value": 47.6, "unit": "%"},
      {"measurement": "remaining activity at 10 µM", "setting": "382 unique human kinases [4]", "value": 49.5, "unit": "%"},
      {"measurement": "remaining activity at 10 µM", "setting": "382 unique human kinases [5]", "value": 91, "unit": "%"},
      {"measurement": "remaining activity at 10 µM", "setting": "382 unique human kinases [6]", "value": 100, "unit": "%"},
      {"measurement": "remaining activity at 10 µM", "setting": "382 unique human kinases [7]", "value": 98.1, "unit": "%"}
    ]}
  ]
}
